From the supplement of paper PMC11451515

Columns and labels:
Conditions in all cases: 48 h
SEM cells [1] = assay: cell viability relative to DMSO control; higher = less cytotoxic
Outline: (§1)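 Leukemia cells (NOMO1 or SEM, 500 cells/well; P12-Ichikawa, 1000 cells/well) were seeded in 5 μl in 1536-well plates after at least four passages of adaptation to each medium. They received library compounds in DMSO by pin dosing, 11 threefold points from 47 μM to 0.79 nM. Luminescence with CellTiter-Glo One was read after 48 h at 37°C. Viability is stated per plate relative to DMSO wells, with cell-free wells as background.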

NOMO1 [2] = assay: as above
Outline: as §1

P12-Ichikawa [3] = assay: as above
Outline: as §1

SEM cells [4] = assay: AUC of viability dose-response curve (% viability x log10 dose units); higher = less sensitive
Outline: (§2)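 Seeding of medium-adapted leukemia cells was at 500 or 1000 cells/well in 1536-well plates, followed by 48 h at 37°C with library compounds in DMSO at 11 threefold doses from 47 μM to 0.79 nM. CellTiter-Glo One luminescence was normalised per plate to DMSO and cell-free wells and fitted as a four-parameter log-logistic function of log10 dose. Area under the curve was integrated by trapezoidal rule, with curves exceeding full viability scaled and curves failing quality control removed.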

NOMO1 [5] = assay: as above
Outline: as §2

P12-Ichikawa [6] = assay: as above
Outline: as §2

COC(=O)CCC1=C(C)C2=CC3=NC(=CC4=C(C)C(=C([NH]4)C=C\5N=C(C=C1[NH]2)\C(=C5C)CCC(O)=O)C=C)\C6=C\C=C(/[C@@H](C(=O)OC)[C@@]36C)C(=O)OC
cell viability [%]
Conditions | NOMO1 [2] | P12-Ichikawa [3] | SEM cells [1]
HPLM + 10% dialyzed FBS, 0.000781 µM | 95.4 | 98.8 | 88.5
HPLM + 10% dialyzed FBS, 0.00234 µM | 94.3 | 103 | 83.3
HPLM + 10% dialyzed FBS, 0.00702 µM | 91.5 | 101 | 89.7
HPLM + 10% dialyzed FBS, 0.0211 µM | 91.9 | 111 | 85.4
HPLM + 10% dialyzed FBS, 0.0632 µM | 92.6 | 102 | 94.2
HPLM + 10% dialyzed FBS, 0.19 µM | 97 | 105 | 94.4
HPLM + 10% dialyzed FBS, 0.569 µM | 103 | 109 | 98
HPLM + 10% dialyzed FBS, 1.71 µM | 80.3 | 106 | 95.7
HPLM + 10% dialyzed FBS, 5.12 µM | 78.6 | 101 | 91.7
HPLM + 10% dialyzed FBS, 15.4 µM | 38.9 | 98.7 | 82.7
HPLM + 10% dialyzed FBS, 46.1 µM | 14.1 | 93.3 | 77.4
RPMI 5 mM glucose + 10% FBS, 0.000781 µM | 86.6 | 93.3 | 89.4
RPMI 5 mM glucose + 10% FBS, 0.00234 µM | 89.3 | 101 | 92
RPMI 5 mM glucose + 10% FBS, 0.00702 µM | 91.9 | 104 | 91.8
RPMI 5 mM glucose + 10% FBS, 0.0211 µM | 97.5 | 100 | 94.9
RPMI 5 mM glucose + 10% FBS, 0.0632 µM | 116 | 97.1 | 95.2
RPMI 5 mM glucose + 10% FBS, 0.19 µM | 109 | 100 | 98.1
RPMI 5 mM glucose + 10% FBS, 0.569 µM | 101 | 103 | 87.7
RPMI 5 mM glucose + 10% FBS, 1.71 µM | 102 | 96.8 | 98.9
RPMI 5 mM glucose + 10% FBS, 5.12 µM | 101 | 88.9 | 95.4
RPMI 5 mM glucose + 10% FBS, 15.4 µM | 55.2 | 77.1 | 89.7
RPMI 5 mM glucose + 10% FBS, 46.1 µM | 14.5 | 60.9 | 75.4
RPMI 5 mM glucose + 10% dialyzed FBS, 0.000781 µM | 85.4 | 88 | 86.6
RPMI 5 mM glucose + 10% dialyzed FBS, 0.00234 µM | 99 | 94.7 | 90.7
RPMI 5 mM glucose + 10% dialyzed FBS, 0.00702 µM | 87 | 97.8 | 101
RPMI 5 mM glucose + 10% dialyzed FBS, 0.0211 µM | 98.4 | 95.6 | 108
RPMI 5 mM glucose + 10% dialyzed FBS, 0.0632 µM | 88 | 103 | 105
RPMI 5 mM glucose + 10% dialyzed FBS, 0.19 µM | 90.8 | 96.9 | 122
RPMI 5 mM glucose + 10% dialyzed FBS, 0.569 µM | 93.7 | 105 | 104
RPMI 5 mM glucose + 10% dialyzed FBS, 1.71 µM | 86.6 | 104 | 108
RPMI 5 mM glucose + 10% dialyzed FBS, 5.12 µM | 94.9 | 94.6 | 105
RPMI 5 mM glucose + 10% dialyzed FBS, 15.4 µM | 45.7 | 84.9 | 91.3
RPMI 5 mM glucose + 10% dialyzed FBS, 46.1 µM | 18.4 | 82.9 | 80.4

AUC of viability dose-response curve
Conditions | NOMO1 [5] | P12-Ichikawa [6] | SEM cells [4]
HPLM + 10% dialyzed FBS | 393 | 469 | 428
RPMI 5 mM glucose + 10% FBS | 433 | 450 | 441
RPMI 5 mM glucose + 10% dialyzed FBS | 397 | 457 | 473

COc1cccc(N(C)C(=S)Oc2ccc3c(c2)CCCC3)n1
cell viability [%]
Conditions | NOMO1 [2] | P12-Ichikawa [3] | SEM cells [1]
HPLM + 10% dialyzed FBS, 0.000781 µM | 93.3 | 97.6 | 75.6
HPLM + 10% dialyzed FBS, 0.00234 µM | 95.6 | 97.3 | 66.4
HPLM + 10% dialyzed FBS, 0.00702 µM | 118 | 103 | 85.4
HPLM + 10% dialyzed FBS, 0.0211 µM | 89.1 | 106 | 88.1
HPLM + 10% dialyzed FBS, 0.0632 µM | 111 | 111 | 91.2
HPLM + 10% dialyzed FBS, 0.19 µM | 102 | 108 | 84
HPLM + 10% dialyzed FBS, 0.569 µM | 101 | 112 | 95.4
HPLM + 10% dialyzed FBS, 1.71 µM | 110 | 107 | 82.5
HPLM + 10% dialyzed FBS, 5.12 µM | 108 | 97.6 | 76.5
HPLM + 10% dialyzed FBS, 15.4 µM | 102 | 107 | 82.8
HPLM + 10% dialyzed FBS, 46.1 µM | 99.6 | 101 | 65.6
RPMI 5 mM glucose + 10% FBS, 0.000781 µM | 85.4 | 96.6 | 75
RPMI 5 mM glucose + 10% FBS, 0.00234 µM | 88.1 | 103 | 83
RPMI 5 mM glucose + 10% FBS, 0.00702 µM | 87 | 99.1 | 86.7
RPMI 5 mM glucose + 10% FBS, 0.0211 µM | 82.2 | 103 | 94
RPMI 5 mM glucose + 10% FBS, 0.0632 µM | 103 | 104 | 104
RPMI 5 mM glucose + 10% FBS, 0.19 µM | 90.8 | 92.2 | 96.2
RPMI 5 mM glucose + 10% FBS, 0.569 µM | 91 | 107 | 93.1
RPMI 5 mM glucose + 10% FBS, 1.71 µM | 88.1 | 104 | 97
RPMI 5 mM glucose + 10% FBS, 5.12 µM | 103 | 96.9 | 99.3
RPMI 5 mM glucose + 10% FBS, 15.4 µM | 92.2 | 95.6 | 97.9
RPMI 5 mM glucose + 10% FBS, 46.1 µM | 105 | 88.1 | 92.8
RPMI 5 mM glucose + 10% dialyzed FBS, 0.000781 µM | 82.3 | 94.9 | 96.7
RPMI 5 mM glucose + 10% dialyzed FBS, 0.00234 µM | 98.9 | 86.6 | 95.1
RPMI 5 mM glucose + 10% dialyzed FBS, 0.00702 µM | 94 | 104 | 90.2
RPMI 5 mM glucose + 10% dialyzed FBS, 0.0211 µM | 84 | 96.9 | 93.3
RPMI 5 mM glucose + 10% dialyzed FBS, 0.0632 µM | 99.5 | 99.7 | 91.3
RPMI 5 mM glucose + 10% dialyzed FBS, 0.19 µM | 97.7 | 94.2 | 100
RPMI 5 mM glucose + 10% dialyzed FBS, 0.569 µM | 103 | 101 | 101
RPMI 5 mM glucose + 10% dialyzed FBS, 1.71 µM | 94.2 | 92.1 | 97.5
RPMI 5 mM glucose + 10% dialyzed FBS, 5.12 µM | 105 | 96.6 | 87.8
RPMI 5 mM glucose + 10% dialyzed FBS, 15.4 µM | 108 | 94.8 | 98.5
RPMI 5 mM glucose + 10% dialyzed FBS, 46.1 µM | 101 | 81.1 | 84.6

AUC of viability dose-response curve
Conditions | NOMO1 [5] | P12-Ichikawa [6] | SEM cells [4]
HPLM + 10% dialyzed FBS | 465 | 469 | 389
RPMI 5 mM glucose + 10% FBS | 441 | 470 | 445
RPMI 5 mM glucose + 10% dialyzed FBS | 444 | 455 | 452

C[C@@H]1CC[C@@]2(CC[C@]3(C)\C(=C/C[C@@H]4[C@@]5(C)C[C@@H](O)[C@H](O)[C@@](C)(CO)[C@@H]5CC[C@@]34C)[C@@H]2[C@H]1C)C(O)=O
cell viability [%]
Conditions | NOMO1 [2] | P12-Ichikawa [3] | SEM cells [1]
HPLM + 10% dialyzed FBS, 0.000781 µM | 120 | 109 | 65.5
HPLM + 10% dialyzed FBS, 0.00234 µM | 127 | 113 | 75.1
HPLM + 10% dialyzed FBS, 0.00702 µM | 121 | 108 | 80.4
HPLM + 10% dialyzed FBS, 0.0211 µM | 109 | 122 | 86.6
HPLM + 10% dialyzed FBS, 0.0632 µM | 109 | 121 | 76.5
HPLM + 10% dialyzed FBS, 0.19 µM | 123 | 120 | 90.6
HPLM + 10% dialyzed FBS, 0.569 µM | 123 | 116 | 99.1
HPLM + 10% dialyzed FBS, 1.71 µM | 106 | 116 | 91.9
HPLM + 10% dialyzed FBS, 5.12 µM | 138 | 122 | 96.5
HPLM + 10% dialyzed FBS, 15.4 µM | 120 | 121 | 110
HPLM + 10% dialyzed FBS, 46.1 µM | 130 | 112 | 115
RPMI 5 mM glucose + 10% FBS, 0.000781 µM | 104 | 116 | 114
RPMI 5 mM glucose + 10% FBS, 0.00234 µM | 99.9 | 123 | 110
RPMI 5 mM glucose + 10% FBS, 0.00702 µM | 117 | 113 | 107
RPMI 5 mM glucose + 10% FBS, 0.0211 µM | 107 | 116 | 120
RPMI 5 mM glucose + 10% FBS, 0.0632 µM | 101 | 119 | 115
RPMI 5 mM glucose + 10% FBS, 0.19 µM | 104 | 121 | 106
RPMI 5 mM glucose + 10% FBS, 0.569 µM | 110 | 126 | 128
RPMI 5 mM glucose + 10% FBS, 1.71 µM | 114 | 131 | 127
RPMI 5 mM glucose + 10% FBS, 5.12 µM | 109 | 123 | 110
RPMI 5 mM glucose + 10% FBS, 15.4 µM | 119 | 119 | 120
RPMI 5 mM glucose + 10% FBS, 46.1 µM | 117 | 110 | 7.07
RPMI 5 mM glucose + 10% dialyzed FBS, 0.000781 µM | 104 | 109 | 87.9
RPMI 5 mM glucose + 10% dialyzed FBS, 0.00234 µM | 119 | 113 | 93.8
RPMI 5 mM glucose + 10% dialyzed FBS, 0.00702 µM | 120 | 114 | 105
RPMI 5 mM glucose + 10% dialyzed FBS, 0.0211 µM | 115 | 109 | 96
RPMI 5 mM glucose + 10% dialyzed FBS, 0.0632 µM | 122 | 121 | 103
RPMI 5 mM glucose + 10% dialyzed FBS, 0.19 µM | 111 | 118 | 76.4
RPMI 5 mM glucose + 10% dialyzed FBS, 0.569 µM | 125 | 128 | 66.6
RPMI 5 mM glucose + 10% dialyzed FBS, 1.71 µM | 108 | 121 | 46.1
RPMI 5 mM glucose + 10% dialyzed FBS, 5.12 µM | 120 | 125 | 229
RPMI 5 mM glucose + 10% dialyzed FBS, 15.4 µM | 114 | 110 | 158
RPMI 5 mM glucose + 10% dialyzed FBS, 46.1 µM | 120 | 123 | 127

AUC of viability dose-response curve
Conditions | NOMO1 [5] | P12-Ichikawa [6] | SEM cells [4]
HPLM + 10% dialyzed FBS | 446 | 468 | 385
RPMI 5 mM glucose + 10% FBS | 445 | 472 | 455
RPMI 5 mM glucose + 10% dialyzed FBS | 468 | 460 | 295
